# Experimental data published in patent US4742061A, “Benzoc[c]-1,5-naphthyridines and related compounds as memory enhancing agents” (priority 1986, dated 1988).
# Test system: mice
# Test: Dark Avoidance Assay (block of scopolamine-induced memory impairment in mice, 24 hours)
# Format: in vivo
# Protocol: In this assay mice are tested for their ability to remember an unpleasant stimulus for a period of 24 hours. A mouse is placed in a chamber than contains a dark compartment; a strong incandescent light drives it to the dark compartment, where an electric shock is administered through metal plates on the floor. The animal is removed from the testing apparatus and tested again, 24 hours later, for the ability to remember the electric shock.
# If scopolamine, an anticholinergic agent that is known to cause memory impairment, is administered before an animal's initial exposure to the test chamber, the animal re-enters the dark compartment shortly after being placed in the test chamber 24 hours later. This effect of scopolamine is blocked by an active test compound, resulting in greater interval before re-entry into the dark compartment.
# The results for an active compound are expressed as the percent of a group of animals in which the effect of scopolamine is blocked, as manifested by an increased interval between being placed in the test chamber and re-entering the dark compartment.
smiles,measurement,setting,value
"c1ccc2c3c(ncc2c1)CCCN3 [1,2,3,4-Tetrahydrobenzo[c]-1,5-naphthyridine]",% of Animals Greater than Scopolamine,dose 1.25 mg/kg of body weight,27%
same,% of Animals Greater than Scopolamine,dose 2.5 mg/kg of body weight,25%
CC[C@@H]1C(=O)OC[C@@H]1Cc1cncn1C [Pilocarpine],% of Animals Greater than Scopolamine,dose 5.0 mg/kg of body weight,13%
"Nc1c2c(nc3ccccc13)CCCC2 [Tacrine, 9-amino-1,2,3,4-tetrahydro-acridine]",% of Animals Greater than Scopolamine,dose 0.63 mg/kg of body weight,13%
